Entries after “also recorded” stand apart in the source; their conditions may differ. Where two headings read alike, the source gives them in different places.
How the values were obtained:
MCF-7 cells [1] = assay: ROS measurement by DCFDA staining; format: cell-based, human; conditions: IC50 dose, 5–6 h, flow cytometry
Method: The respiratory cycle of mitochondria is the foremost source of reactive oxygen species (ROS), and ROS has the potential to induce cell apoptosis. Thus, it was speculated that the treatment with selected acridone derivatives might lead to the production of ROS. The MCF-7 cells were treated with the IC50 dose of compounds 5, 7b, 7d, 7f and 7h for 5–6 h and ROS levels were quantified by flow cytometry using 2-dichlorofluorescein diacetate (DCFDA) staining.
Besides flow cytometry, levels of ROS were also measured by fluorescence spectroscopy, after treatment with compounds 5, 7b, 7d, 7f and 7h, DCFDA staining and imaging on a fluorescence microscope (Fig. 6D). It is easily observed in the Fig. 6D that the intensifications of green fluorescence in case of treated cells denote the higher levels of ROS.
DCF fluorescence helps to measures innumerable ROS such as H2O2 and hydroxyl radicals. That why DCFDA staining was used to quantify the reactive oxygen species (ROS) level inside the cell as described earlier[17],[41]. Briefly, the MCF-7 cells (70–80% confluent) were incubated with IC50 concentration of each compound and positive control H2O2, respectively in a 24-well culture plates. After 5–6 h incubation of cells with respective compounds, cells were gently washed with 500 μl of prewarmed (at 37 °C) Krebs Ringer buffer (20 mM HEPES, 2 mM MgSO4, 10 mM dextrose, 127 mM NaCl, 1 mM CaCl2 and 5.5 mM KCl), subsequently 10 µM DCFDA (Invitrogen Grand Island, NY) has been added to each well and incubated further for 30 min in dark at 37 °C in a humidified CO2 incubator. After 30 min incubation, the cells were collected by trypsinization and ROS levels were quantified with the help of Flow Cytometry. Nearly 10,000 events for each sample were collected on BD LSR II Flow Cytometry Analyzer, and analyzed with help of FlowJo. For intact cell imaging, cells were washed with PBS, pH 7.4 and imaged for ROS levels estimation using the DCFDA fluorescent dye. Fluorescence images were taken on Nikon-EclipseTS100 microscope.

MCF-7 cells [2] = assay: MTT cell viability assay, MCF-7; format: cell-based; conditions: Homo sapiens, MCF7
Method: Initially, all synthesized acridone derivatives were evaluated for their cytotoxicity potential on MCF-7, HepG2 and HEK293 cell lines by MTT assay. These synthesized acridone derivatives were screened in the concentration range of 0–200 µM, for 24 and 48 h. […] It was also interesting that in the studied […] concentration range these compounds don’t show considerable cytotoxicity towards HEK293 cell lines. […] Thus, compounds 5, 7b, 7d, 7f and 7h were taken for further cell based studies such as apoptosis and reactive oxygen species (ROS) production.
To study the effect of synthesized acridone derivatives on cell viability and proliferation, a standard MTT method was carried out. Cells were plated (8000–9000/well) in a 96-well plate and incubated overnight. On the next day, cells were treated with increasing concentrations (0.1–80 μM) of synthesized acridone derivatives in a final volume of 200 µl for 48 h at 37 °C in a humidified chamber. At the end of treatment time point, 20 µl of MTT solution (from 5 mg/ml stock solution in phosphate buffer saline, pH 7.4) was added to each well and incubated further for 4–5 h at 37 °C in the CO2 incubator. After stipulated time the supernatant was aspirated and the colored formazan crystal produced as a result of MTT reduction was dissolved in 100 µl of DMSO. The absorbance (A) of colored product was then measured at 570 nm on a multiplate ELISA reader (BioRad). The percentage of viable cells was calculated and used to estimate the IC50 (50% inhibitory concentration) values for each acridone derivative. For cell proliferation studies paclitaxel has been taken as positive control.

MCF-7 cells [3] = assay: Annexin-V apoptosis assay by flow cytometry; format: cell-based, human; conditions: IC50 concentration, 24 h, annexin-V staining
Method: Evasion of apoptosis is a striking hallmark of cancerous cells, it is an essential process that regulates abnormal growth of cells, but compromised signaling helps the cancerous cells to escape apoptosis. MARK4 overexpression also supports the growth and evasion of cancerous cells. Thus, the probability of apoptosis induction by inhibiting MARK4 was studied. The MCF-7 cells were serum starved and treated with IC50 concentration of each acridone derivative for 24 h and subsequently annexin-V staining was used to assess the apoptotic potential of these compounds.
Figure 6 MARK4 inhibition by selected acridone derivatives induces apoptosis, elicited oxidative stress by inducing ROS production in MCF-7 cells. MCF-7 cells were treated with IC50 concentrations of each compound for 24 h and processed for apoptosis analysis using Annexin V-7AAD apoptosis kit by flow cytometry. (A) Quadrants showing the anti-FITC-Annexin-V stained cells after the treatment of each compound as indicated. (B) Bar graphs represents the percentage of apoptotic MCF-7 cells attained with Annexin-V for duplicate measurements ± SD. **p < 0.001, as compared to control (untreated cells). (For anticancer activities paclitaxel has been taken as positive control). (C) Histogram showing the fluorescence emission intensity of DCF as measured by flow cytometry, MCF-7 cells were treated with IC50 concentrations of each compound for 5–6 h and processed for ROS measurements using DCFDA staining and were quantified by flow cytometry. (D) Representative images of MCF-7 cells stained with DCFDA captured on fluorescence microscope (20 X original magnification) for the assessment of ROS after the treatment of respective compound and intensity of green color represents the levels of ROS.
Annexin-V staining was used to analyse the apoptotic potential of synthesized acridone derivatives as described previously[47],[48]. Briefly, MCF-7 cells were dosed with IC50 concentration of selected acridone derivative for 24 h at 37 °C. The control cells were treated with media only. After 24 h treatment, nearly 2.0–2.5 × 10^6 cells were trypsinized and collected by centrifuging the cell suspension at 1800 rpm for 4 min. Collected cells were washed two times with 5 ml of PBS. Finally, cells were stained with FITC labeled Annexin-V antibodies using FITC-Annexin-V kit according to the manufacturer’s guidelines (BD-Biosciences, USA). Approximately, 10,000 events were analyzed for each sample through flow cytometry on BD LSR II Flow Cytometry Analyzer and FlowJo.

[4] = Table 1, from MTT, read-out: IC50, (µM), MCF-7
[5] = MTT, read-out: IC50 for MCF-7 cells

Question: For `COc1ccc(CNC(=O)Cn2c3ccccc3c(=O)c3cc(C)ccc32)cc1` [Compound 7d, N-(4-methoxybenzyl)-2-(2-methyl-9-oxoacridin-10(9H)-yl)acetamide], which ROS levels (MCF-7 cells [1]) is on record?
Answer: increases the production of ROS; also recorded: induce ROS to a higher extent than compound 5 and 7h

Question: What about the IC50 (MCF-7 cells [2]; [4]) of the same compound?
Answer: 6.3 ± 1.2 µM

Question: And the “apoptosis induced in MCF-7 cells” value (MCF-7 cells [3])?
Answer: 43.10%

Question: What does the source list for `COc1ccccc1NC(=O)Cn1c2ccccc2c(=O)c2cc(C)ccc21` [Compound 7h, N-(2-methoxyphenyl)-2-(2-methyl-9-oxoacridin-10(9H)-yl)acetamide]?
Answer: ROS levels (MCF-7 cells [1]): increases the production of ROS; IC50 (MCF-7 cells [2]; [5]): 7.2 ± 1.33 µM; apoptosis induced in MCF-7 cells (MCF-7 cells [3]): 21.53%

Question: With `Cc1ccc(NC(=O)Cn2c3ccccc3c(=O)c3cc(C)ccc32)cc1` [Compound 7f, 2-(2-Methyl-9-oxoacridin-10(9H)-yl)-N-(p-tolyl)acetamide] as the compound, how does the ROS levels (MCF-7 cells [1]) read?
Answer: increases the production of ROS; also recorded: induce ROS to a higher extent than compound 5 and 7h

Question: What about the IC50 (MCF-7 cells [2]; [4]) of the same compound?
Answer: 5.8 ± 1.4 µM

Question: What about the “apoptosis induced in MCF-7 cells” value (MCF-7 cells [3]) of the same compound?
Answer: 41.35%

Question: How did the ROS levels (MCF-7 cells [1]) turn out when `COC(=O)Cn1c2ccccc2c(=O)c2cc(C)ccc21` [Compound 5, Methyl 2-(2-methyl-9-oxoacridin-10(9H)-yl)acetate] was run?
Answer: increases the production of ROS

Question: What about the IC50 (MCF-7 cells [2]; [5]) of the same compound?
Answer: 9.4 ± 1 µM

Question: And the “apoptosis induced in MCF-7 cells” value (MCF-7 cells [3])?
Answer: 17.91%

Question: For `Cc1ccc2c(c1)c(=O)c1ccccc1n2CC(=O)NCc1ccccc1` [Compound 7b, N-benzyl-2-(2-methyl-9-oxoacridin-10(9H)-yl)acetamide], which ROS levels (MCF-7 cells [1]) is on record?
Answer: increases the production of ROS; also recorded: induce ROS to a higher extent than compound 5 and 7h

Question: What about the IC50 (MCF-7 cells [2]; [4]) of the same compound?
Answer: 5.2 ± 1.2 µM

Question: And the “apoptosis induced in MCF-7 cells” value (MCF-7 cells [3])?
Answer: 69.23%

Source: paper PMC6368574, “Probing the Inhibition of Microtubule Affinity Regulating Kinase 4 by N-Substituted Acridones” (Scientific Reports, 2019)
